These results are taken from US20250186486A1, “POTENTIATION OF DURABLE ANTITUMOR IMMUNITY BY MULTIFACTORIAL IMMUNE MODULATION” (BAYLOR COLLEGE OF MEDICINE, priority 2022, published 2025).

Assay [1] concerns 4T-1 TNBC cells. Briefly: Subcutaneous 4T-1 TNBC tumor model, intratumoral injection; tumor growth by caliper/IVIS, survival. It is filed as in vivo, Balb/c mice. Conditions: 4T-1 s.c.; for impact on tumor growth: injected intratumorally on day 12, caliper (FIGS. 7, 8). An excerpt:
Mice. 6-10 week old female Balb/c mice or C57BL/6 animals of both sexes were procured from Baylor College of Medicine or Jackson Laboratories (Bar Harbor, ME). Th-MYCN mice in the 129X1/SvJ background were a kind gift from Dr. William Weiss (UCSF, San Francisco, CA) and were bred in house. All mice were maintained in accordance with the specific IACUC requirements of Baylor College of Medicine and in accordance with animal protocol AN-8375.
Tumor Implantation and Measurements. 500,000 4T-1 TNBC cells (+/−luc2 transduction) were subcutaneously injected onto the hind quarters/back of each mouse and allowed time to reach palpation (approximately 50-100 mm^3) before treatment. For orthotopic 4T-1 experiments, 500,000 4T-1 cells were implanted in the mammary fat pad according to the method of Zhang et al.^34 Following establishment of tumors, experimental cohorts were assembled by means of stratified randomization. Attempts were made to minimize confounding variables such as order of cohort treatment, order of tumor measurement, and cage location by means of simple randomization. Tumors were treated with either the indicated antitumor regimen or vehicle control and measured by IVIS imaging (if applicable) or calculated by caliper measurement. 100,000 MOC-2 HNSCC cells were subcutaneously injected onto the hind quarters/back of each mouse and allowed to become palpable (approximately 50-100 mm^3) before treatment. Tumor size and progression were determined by caliper measurement. Single cell suspensions were generated from Th-MYCN tumors according to the method of Kroesen et al.^12 Suspensions were subcutaneously injected onto the hind quarters/back of each mouse and allowed time to reach palpation (approximately 50-100 mm^3) before treatment. Tumor size and progression were determined by caliper measurement. Tumor volumes were calculated by measuring in two dimensions according to the formula (longest length^2)×shortest length.
IVIS Imaging. Post tumor implantation, mice were injected with […] of 10 mg/ml D-Luciferin (Regis Technologies, Morton Grove, IL), incubated for 7 min and bio-luminescence was measured with the IVIS imaging system (Caliper Life Sciences, Waltham, MA) following a 60 second exposure. Imaging was performed at 2-4 day intervals.
Antitumor reagents. For optimization in the TNBC model, all reagents were dissolved in either DMSO or sterile water based on solubility requirements and included Copper(II) diethyldithiocarbamate at 85 μg/50 μl (VWR, Radnor, PA), 2-Cl-IB-MECA at 20 μg/50 μl (Millipore, Burlington, MA), DMXAA at […]/50 μl (R&D Systems, Minneapolis, MN), 5′ppp-dsRNA/Lyovec at 375 ng/50 μl (Invivogen, San Diego, CA), R848 at 15 μg/50 μl (Invivogen), galunisertib at […]/50 μl (Selleckchem, Houston, TX), epcadostat at […]/50 μl (Selleckchem), N^w-Hydroxy-nor-L-arginine at 6 μg/50 μl (Sigma-Aldrich, St. Louis, MO), L-NMMA at 100 ng/50 μl (Abcam, Boston, MA), clodronate at […]/50 μl (Abcam), and 4-1BB ligand at 1 μg/50 μl (NovusBio). Combinatorial treatments were reconstituted as a 10× stock, combined as necessary, and diluted to a 1× concentration with the appropriate diluent. Treatments were intratumorally injected with a 28 gauge needle as a 50 μl bolus. […]
Statistical Analysis. Significance of differences, unless stated otherwise, was determined by one-way analysis of variance (ANOVA) using Tukey's honestly significant difference (HSD) post hoc test. […]

Assay [2] deals with 4T-1 luc-2+ cells. Kind of assay: Orthotopic 4T-1 TNBC model (mammary fat pad), intratumoral treatment, IVIS. It counts as in vivo, Balb/c mice. The conditions noted are these: 4T-1 luc-2+ in mammary fat pad, intratumoral treatment from day 7. As to the method:
Lastly, the boosting regimen was combined together with regimen 16 and performed a dose response analysis at 1×, 0.5×, 0.125×, 0.0625×, and 0.03125× concentrations. […] Similar to the experiment outlined in FIGS. 1C-D, this experiment was performed with the 4T-1 luc2^neg parent cell line to validate that protective immune responses were not dependent upon the presence of xenogeneic luciferase. The treatment model was next validated in the orthotopic setting (Zhang et al., 2019). In this series of experiments, 500,000 4T-1 luc-2^+ cells were implanted under the fourth nipple of the mammary fat pad. […]
Tumor Implantation and Measurements. […] Tumors were treated with either the indicated antitumor regimen or vehicle control and measured by IVIS imaging (if applicable) or calculated by caliper measurement. […] Tumor size and progression were determined by caliper measurement. […] Tumor size and progression were determined by caliper measurement. Tumor volumes were calculated by measuring in two dimensions according to the formula (longest length^2)×shortest length.
IVIS Imaging. Post tumor implantation, mice were injected with […] of 10 mg/ml D-Luciferin (Regis Technologies, Morton Grove, IL), incubated for 7 min and bio-luminescence was measured with the IVIS imaging system (Caliper Life Sciences, Waltham, MA) following a 60 second exposure. […]

With “4-1BBL: 4-1BB ligand (NovusBio), 4-1BB agonist”, the “effect of presence of 4-1BBL on anti-tumor effects of the TLR, STING and RLR agents” value in assay [1] (FIG. 8) is reported as “antagonized the anti-tumor effects”.

For the compound `CC(=O)O.CNC(=N)NCCC[C@H](N)C(=O)O` [L-NMMA, L-NG-monomethyl arginine acetate], in assay [1], the “impact on tumor growth” value is “no beneficial impact on tumor growth”.

Regarding `N=C(NO)NCC[C@H](N)C(=O)O` [No-hydroxy-nor-L-arginine], the “impact on tumor growth” value in assay [1] was “no beneficial impact on tumor growth”.

Regarding `O=P(O)(O)C(Cl)(Cl)P(=O)(O)O` [clodronate], the “impact on tumor growth” value in assay [1] is reported as “no beneficial impact on tumor growth”.

Turning to `NS(=O)(=O)NCCNc1nonc1C(=NO)Nc1ccc(F)c(Br)c1` [epacadostat], the “impact on tumor growth” value in assay [1] is “no beneficial impact on tumor growth”.

In the case of `Cc1cccc(-c2nn3c(c2-c2ccnc4ccc(C(N)=O)cc24)CCC3)n1` [galunersitib, galunisertib], the “tumor growth in the orthotopic setting” value in assay [2] is reported as “no impact on tumor growth”.
